Data taken from patent US20220162192A1 (ESCAPE Bio, Inc., priority 2019, published 2022).
Where two headings read alike, the source gives them in different places.

Tests used:
[1] = molecular target: T1, Recombinant G2019S-LRRK2 protein (Homo sapiens, UniProt Q5S007, G2019S); assay: LanthaScreen Kinase Activity Assay (TR-FRET), G2019S-LRRK2; format: biochemical; details: class symbols; 25 μM ATP, 400 nM LRRKtide, 2.9 nM kinase, 60 min at room temperature
T1 construct: purchased Life Technologies PV4881
Protocol: (§1) LRRK2 kinase activity was measured using a LanthaScreen™ Kinase Activity Assay from ThermoFisher Scientific. Recombinant wild type or G2019S-LRRK2 protein (Life Technologies, PR8604B or PV4881, respectively), was incubated with a fluorescein-labeled peptide substrate called LRRKtide that is based upon ezrin/radixin/moesin (ERM) (Life Technologies, PV4901) in the presence of ATP and serially diluted compound. After an incubation period of 1 hr, the phosphotransferase activity was stopped and a terbium-labelled anti-pERM antibody (Life Technologies, PV4899) was added to detect the phosphorylation of LRRKtide by measuring the time resolved-Forster resonant energy transfer (TR-FRET) signal from the terbium label on the antibody to the fluorescein tag on LRRKtide, expressed as the 520 nm/495 nm emission ratio. Compound-dependent inhibition of the TR-FRET signal was used to generate a concentration-response curve for IC50 determination.
(§2) The assay was carried out under the following protocol conditions: 1 mM compound in DMSO was serially diluted 1:3, 11 points in DMSO with a Biomek FX and 0.1 μL of the diluted compound was subsequently stamped into the assay plate (384-well format Lumitrac 200, Greiner, 781075) with an Echo Labcyte such that the final compound concentration in the assay was 10 μM to […]. Subsequently, 5 μL of 2× kinase solution (2.9 nM final concentration) was added to the assay plate in assay buffer composed of 50 mM Tris pH 8.5 (Sigma, T6791), 5 mM MgCl2 (Fluka, 63020), 1 mM EGTA (Sigma, E3889), 0.01% BRIJ-35 (Sigma, P1254) and 2 mM DTT. The reaction was started by addition of 2×ATP/LRRKtide solution in assay buffer such that the final concentration was 400 nM LRRKtide and 25 μM ATP. After 60 min incubation at room temperature, the reaction was stopped by addition of […] containing a final concentration of 2 nM anti-pERM antibody and 10 mM EDTA. After a 30 min incubation at RT, the TR-FRET signal was measured on a Wallac 2104 EnVision® multilabel reader at an excitation wavelength of 340 nm and reading emission at 520 nm and 495 nm. The ratio of the 520 nm and 495 nm emission was used to analyze the data.

[2] = molecular target: T2, Recombinant wild type LRRK2 protein (Homo sapiens, UniProt Q5S007); assay: LanthaScreen Kinase Activity Assay (TR-FRET), wild type LRRK2; format: biochemical; details: 25 μM ATP, 400 nM LRRKtide, 2.9 nM kinase, 60 min at room temperature, read-out: LRRK2 WT IC50
T2 construct: purchased Life Technologies PR8604B
Protocol: as §1, §2

[3] = numeric bound instead of class symbol

T1 sequence (Q5S007 whole entry G2019S): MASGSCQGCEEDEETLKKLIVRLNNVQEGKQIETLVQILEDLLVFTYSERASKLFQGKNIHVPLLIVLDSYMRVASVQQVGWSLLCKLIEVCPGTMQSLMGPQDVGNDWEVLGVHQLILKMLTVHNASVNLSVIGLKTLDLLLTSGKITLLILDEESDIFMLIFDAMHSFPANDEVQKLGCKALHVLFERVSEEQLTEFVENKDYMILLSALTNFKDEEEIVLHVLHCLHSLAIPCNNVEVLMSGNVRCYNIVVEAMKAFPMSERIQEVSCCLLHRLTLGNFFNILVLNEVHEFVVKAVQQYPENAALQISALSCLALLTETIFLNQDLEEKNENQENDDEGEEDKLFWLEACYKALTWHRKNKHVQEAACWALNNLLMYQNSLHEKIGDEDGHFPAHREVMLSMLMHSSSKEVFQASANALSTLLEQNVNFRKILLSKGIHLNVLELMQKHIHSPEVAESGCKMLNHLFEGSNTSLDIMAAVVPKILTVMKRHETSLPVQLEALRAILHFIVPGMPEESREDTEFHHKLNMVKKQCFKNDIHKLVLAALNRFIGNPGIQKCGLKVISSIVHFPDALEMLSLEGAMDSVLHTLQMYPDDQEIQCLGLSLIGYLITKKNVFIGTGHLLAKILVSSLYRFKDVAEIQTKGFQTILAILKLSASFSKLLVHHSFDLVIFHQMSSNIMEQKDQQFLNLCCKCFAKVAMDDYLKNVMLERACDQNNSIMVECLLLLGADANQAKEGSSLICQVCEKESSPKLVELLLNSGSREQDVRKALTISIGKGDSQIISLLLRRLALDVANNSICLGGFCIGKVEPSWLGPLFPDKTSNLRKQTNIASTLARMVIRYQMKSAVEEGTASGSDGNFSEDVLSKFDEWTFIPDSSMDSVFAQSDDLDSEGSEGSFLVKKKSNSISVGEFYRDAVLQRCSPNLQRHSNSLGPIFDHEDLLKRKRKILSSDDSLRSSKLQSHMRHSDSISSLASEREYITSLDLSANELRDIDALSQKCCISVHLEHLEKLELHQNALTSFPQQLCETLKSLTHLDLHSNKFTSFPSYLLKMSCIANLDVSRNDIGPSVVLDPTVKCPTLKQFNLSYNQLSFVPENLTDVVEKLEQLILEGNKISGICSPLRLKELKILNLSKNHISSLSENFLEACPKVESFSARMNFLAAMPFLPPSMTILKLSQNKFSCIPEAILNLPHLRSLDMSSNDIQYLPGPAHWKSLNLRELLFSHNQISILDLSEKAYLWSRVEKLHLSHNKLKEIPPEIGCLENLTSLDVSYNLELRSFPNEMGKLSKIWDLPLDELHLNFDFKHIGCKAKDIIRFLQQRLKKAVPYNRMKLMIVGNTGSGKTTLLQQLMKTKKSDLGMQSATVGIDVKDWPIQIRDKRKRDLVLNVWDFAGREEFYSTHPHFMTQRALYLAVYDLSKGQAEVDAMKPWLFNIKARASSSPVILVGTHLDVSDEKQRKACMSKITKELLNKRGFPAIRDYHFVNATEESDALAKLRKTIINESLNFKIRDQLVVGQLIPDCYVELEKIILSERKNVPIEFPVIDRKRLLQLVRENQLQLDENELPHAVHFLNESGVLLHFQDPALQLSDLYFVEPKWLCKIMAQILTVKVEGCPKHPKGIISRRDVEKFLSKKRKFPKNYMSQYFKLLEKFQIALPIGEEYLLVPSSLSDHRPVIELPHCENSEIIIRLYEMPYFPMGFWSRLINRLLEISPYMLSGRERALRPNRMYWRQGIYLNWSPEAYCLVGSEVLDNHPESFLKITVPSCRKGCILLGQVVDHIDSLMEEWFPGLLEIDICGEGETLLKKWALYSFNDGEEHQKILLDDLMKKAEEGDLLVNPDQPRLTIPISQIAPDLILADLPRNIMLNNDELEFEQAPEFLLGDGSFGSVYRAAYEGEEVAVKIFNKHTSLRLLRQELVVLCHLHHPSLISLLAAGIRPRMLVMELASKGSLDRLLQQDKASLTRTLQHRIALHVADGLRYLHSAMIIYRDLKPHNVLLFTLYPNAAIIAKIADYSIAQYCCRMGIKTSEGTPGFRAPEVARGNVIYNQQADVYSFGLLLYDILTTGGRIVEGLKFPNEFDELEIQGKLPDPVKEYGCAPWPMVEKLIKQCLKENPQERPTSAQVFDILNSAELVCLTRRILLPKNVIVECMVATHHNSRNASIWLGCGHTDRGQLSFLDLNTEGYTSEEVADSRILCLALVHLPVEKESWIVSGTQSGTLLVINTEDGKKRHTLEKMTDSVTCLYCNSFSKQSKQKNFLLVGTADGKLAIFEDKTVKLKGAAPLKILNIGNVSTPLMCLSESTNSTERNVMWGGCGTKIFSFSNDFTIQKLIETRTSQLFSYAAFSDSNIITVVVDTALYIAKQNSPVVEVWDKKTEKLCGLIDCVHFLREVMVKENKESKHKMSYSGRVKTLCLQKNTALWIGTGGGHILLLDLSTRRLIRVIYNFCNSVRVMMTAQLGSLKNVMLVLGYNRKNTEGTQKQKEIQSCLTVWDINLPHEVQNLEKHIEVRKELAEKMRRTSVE
T2 sequence (Q5S007 whole entry): as the sequence (Q5S007 whole entry G2019S) above, with S2019G counted along it

Compound	IC50 [1] [µM]	IC50 [2, 3] [µM]	IC50 ([2]; class symbols) [µM]
Cc1n[nH]c2ccc(NC(=O)c3cc4nn[nH]c4cc3C(F)(F)F)cc12 [Example 10, N-(3-Methyl-1H-indazol-5-yl)-6-(trifluoromethyl)-1H-benzo[d][1,2,3]triazole-5-carboxamide]	1 to 10	> 10	
Cc1cccc(-c2n[nH]c3ccc(NC(=O)c4c(F)cc5c(cnn5C)c4F)cc23)n1 [Example 71, 4,6-Difluoro-1-methyl-N-(3-(6-methylpyridin-2-yl)-1H-indazol-5-yl)-1H-indazole-5-carboxamide]	≤ 0.1		0.1 to 1
O=C(Nc1ccc2[nH]nc(-c3ccoc3)c2c1)C1CCc2cncn2C1 (single isomer, unassigned) [Example 173b]	1 to 10		1 to 10
Cc1n[nH]c2ccc(NC(=O)c3ccc4nnc(C)n4c3)cc12 [Example 8, 3-Methyl-N-(3-methyl-1H-indazol-5-yl)-[1,2,4]triazolo[4,3-a]pyridine-6-carboxamide]	1 to 10		1 to 10
O=C(Nc1ccc2[nH]nc(-c3ccoc3)c2c1)c1ccn2nccc2c1 [Example 117, N-(3-(Furan-3-yl)-1H-indazol-5-yl)pyrazolo[1,5-a]pyridine-5-carboxamide]	≤ 0.1		0.1 to 1
Cn1ncc2c(F)c(C(=O)Nc3ccc4[nH]nc(-c5cncc(N6CCOCC6)c5)c4c3)c(F)cc21 [Example 98, 4,6-Difluoro-1-methyl-N-(3-(5-morpholinopyridin-3-yl)-1H-indazol-5-yl)-1H-indazole-5-carboxamide]	≤ 0.1		≤ 0.1
Cn1ncc2c(F)c(C(=O)Nc3ccc4[nH]nc(-c5ccsc5)c4c3)c(F)cc21 [Example 100, 4,6-Difluoro-1-methyl-N-(3-(thiophen-3-yl)-1H-indazol-5-yl)-1H-indazole-5-carboxamide]	≤ 0.1		≤ 0.1
Cn1ncc2c(F)c(C(=O)Nc3ccc4[nH]nc(-c5ccno5)c4c3)c(F)cc21 [Example 137, 4,6-Difluoro-N-(3-(isoxazol-5-yl)-1H-indazol-5-yl)-1-methyl-1H-indazole-5-carboxamide]	≤ 0.1		≤ 0.1
Cc1n[nH]c2ccc(NC(=O)c3ccc4[nH]nnc4c3C#N)cc12 [Example 14, 4-Cyano-N-(3-methyl-1H-indazol-5-yl)-1H-benzo[d][1,2,3]triazole-5-carboxamide]	1 to 10	> 10	
Cn1ncc2cc(C(=O)Nc3ccc4[nH]nc(-c5ccccc5)c4c3)ccc21 [Example 107, 1-Methyl-N-(3-phenyl-1H-indazol-5-yl)-1H-indazole-5-carboxamide]	0.1 to 1		1 to 10
Cn1ncc2c(F)c(C(=O)Nc3ccc4[nH]nc(C5CCOC5)c4c3)c(F)cc21 (centres unmarked) [Example 104, 4,6-Difluoro-1-methyl-N-(3-(tetrahydrofuran-3-yl)-1H-indazol-5-yl)-1H-indazole-5-carboxamide]	0.1 to 1		1 to 10
Cn1ncc2c(F)c(C(=O)Nc3ccc4[nH]nc(NCc5ccccc5)c4c3)c(F)cc21 [Example 110, N-(3-(Benzylamino)-1H-indazol-5-yl)-4,6-difluoro-1-methyl-1H-indazole-5-carboxamide]	≤ 0.1		0.1 to 1
Cn1ncc2c1CCC(C(=O)Nc1ccc3[nH]nc(-c4ccoc4)c3c1)C2 (single isomer, unassigned) [Example 161a]	≤ 0.1		≤ 0.1
Cc1cn2cnnc2c(C)c1C(=O)Nc1ccc2[nH]nc(C)c2c1 [Example 58, 6,8-Dimethyl-N-(3-methyl-1H-indazol-5-yl)-[1,2,4]triazolo[4,3-a]pyridine-7-carboxamide]	0.1 to 1		1 to 10
Cc1cc(-c2n[nH]c3ccc(NC(=O)c4c(F)cc5c(cnn5C)c4F)cc23)ccn1 [Example 37, 4,6-Difluoro-1-methyl-N-(3-(2-methylpyridin-4-yl)-1H-indazol-5-yl)-1H-indazole-5-carboxamide]	≤ 0.1		≤ 0.1
CN(C)c1cccc(-c2n[nH]c3ccc(NC(=O)c4c(F)cc5c(cnn5C)c4F)cc23)c1 [Example 88, N-(3-(3-(Dimethylamino)phenyl)-1H-indazol-5-yl)-4,6-difluoro-1-methyl-1H-indazole-5-carboxamide]	≤ 0.1		≤ 0.1

Compound	IC50 [1] [µM]	IC50 [2, 3] [µM]	IC50 ([2]; class symbols) [µM]
Cc1n[nH]c2ccc(NC(=O)c3c(Cl)cn4cnnc4c3Cl)cc12 [Example 56, 6,8-Dichloro-N-(3-methyl-1H-indazol-5-yl)-[1,2,4]triazolo[4,3-a]pyridine-7-carboxamide]	≤ 0.1		0.1 to 1
Cc1cc2nn[nH]c2cc1C(=O)Nc1ccc2[nH]nc(Br)c2c1 [Example 15, N-(3-Bromo-1H-indazol-5-yl)-5-methyl-1H-benzo[d][1,2,3]triazole-6-carboxamide]	≤ 0.1		1 to 10
CCCc1n[nH]c2ccc(NC(=O)c3c(F)cc4c(cnn4C)c3F)cc12 [Example 99, 4,6-Difluoro-1-methyl-N-(3-propyl-1H-indazol-5-yl)-1H-indazole-5-carboxamide]	≤ 0.1		0.1 to 1
Cc1cc(-c2n[nH]c3ccc(NC(=O)c4c(F)cc5c(cnn5C)c4F)cc23)c(C)o1 [Example 101, N-(3-(2,5-Dimethylfuran-3-yl)-1H-indazol-5-yl)-4,6-difluoro-1-methyl-1H-indazole-5-carboxamide]	≤ 0.1		0.1 to 1
Cn1ncc2c(F)c(C(=O)Nc3ccc4[nH]nc(C(F)(F)F)c4c3)c(F)cc21 [Example 115, 4,6-Difluoro-1-methyl-N-(3-(trifluoromethyl)-1H-indazol-5-yl)-1H-indazole-5-carboxamide]	≤ 0.1		0.1 to 1
O=C(Nc1ccc2[nH]nc(-c3ccoc3)c2c1)c1ccc2ncoc2c1 [Example 116, N-(3-(furan-3-yl)-1H-indazol-5-yl)benzo[d]oxazole-6-carboxamide]	≤ 0.1		0.1 to 1
Cc1cc2cnnn2cc1C(=O)Nc1ccc2[nH]nc(-c3ccccc3)c2c1 [Example 43, 5-Methyl-N-(3-phenyl-1H-indazol-5-yl)-[1,2,3]triazolo[1,5-a]pyridine-6-carboxamide]	≤ 0.1		≤ 0.1
Cc1cc2cncn2c(C)c1C(=O)Nc1ccc2[nH]nc(-c3ccccc3)c2c1 [Example 69, 5,7-Dimethyl-N-(3-phenyl-1H-indazol-5-yl)imidazo[1,5-a]pyridine-6-carboxamide]	≤ 0.1		≤ 0.1
O=C(Nc1ccc2[nH]nc(-c3ccoc3)c2c1)c1ccc2nsnc2c1 [Example 120, N-(3-(Furan-3-yl)-1H-indazol-5-yl)benzo[c][1,2,5]thiadiazole-5-carboxamide]	≤ 0.1		0.1 to 1
Cn1nccc1-c1n[nH]c2ccc(NC(=O)c3c(F)cc4c(cnn4C)c3F)cc12 [Example 96, 4,6-Difluoro-1-methyl-N-(3-(1-methyl-1H-pyrazol-5-yl)-1H-indazol-5-yl)-1H-indazole-5-carboxamide]	≤ 0.1		0.1 to 1
Cc1nc2ccc(C(=O)Nc3ccc4[nH]nc(-c5ccoc5)c4c3)cc2o1 [Example 134, N-(3-(Furan-3-yl)-1H-indazol-5-yl)-2-methylbenzo[d]oxazole-6-carboxamide]	≤ 0.1		0.1 to 1
Cc1cc2cnnn2c(C)c1C(=O)Nc1ccc2[nH]nc(-c3ccoc3)c2c1 [Example 150, N-(3-(Furan-3-yl)-1H-indazol-5-yl)-5,7-dimethyl-[1,2,3]triazolo[1,5-a]pyridine-6-carboxamide]	≤ 0.1		≤ 0.1
Cc1cc2cn[nH]c2cc1C(=O)Nc1ccc2[nH]nc(-c3ccccc3)c2c1 [Example 23, 5-Methyl-N-(3-phenyl-1H-indazol-5-yl)-1H-indazole-6-carboxamide]	≤ 0.1		≤ 0.1
COc1n[nH]c2ccc(NC(=O)c3c(F)cc4c(cnn4C)c3F)cc12 [Example 106, 4,6-Difluoro-N-(3-methoxy-1H-indazol-5-yl)-1-methyl-1H-indazole-5-carboxamide]	≤ 0.1		1 to 10
O=C(Nc1ccc2[nH]nc(-c3ccoc3)c2c1)c1cnc2nccn2c1 [Example 129, N-(3-(Furan-3-yl)-1H-indazol-5-yl)imidazo[1,2-a]pyrimidine-6-carboxamide]	≤ 0.1		0.1 to 1
